Data reported in patent US8642350B2, “Sensor material and uses thereof to simultaneously sense two analytes: oxygen and pH or acidic/basic gaseous ions” (University College Cork, National University of Ireland, …, priority 2010, dated 2014).

What was measured:
Assay type in all cases: physicochemical
[1] = Oxygen calibration by phosphorescence lifetime (quenching by dissolved O2); conditions: for quenching by dissolved O2: sensors in aqueous solutions, 0-21 kPa O2; for Lifetime 0% O2 / Lifetime 21% O2: solid state sensor form; for Lifetime 0% O2: 0% O2, 24° C.; for Lifetime 21% O2: 21% O2, 24° C.
Procedure: (§1) FIG. 2: Oxygen calibration in the phosphorescence lifetime (A) and Stern-Volmer (right) scales for the Pt-OEP-CH═N—CH3 (♦) and Pd-OEP-CH═N—CH3 (▪) sensors, measured in sodium acetate, pH 6 at 24° C. (B). pH calibration of Pt-OEP-CH═N—CH3 (absorbance) at certain pH steps, the two black bars show the bandwidth of commercial LEDs at 400 nm and 450 nm (C) and of Pt-OEP-CH═N—CH3 (♦) and Pd-OEP-CH═N—CH3 (▪) at 24° C. and 30° C. respectively (emission intensity) (D), measured in sodium acetate.
(§2) This cocktail of sensor components was applied in 2 μl aliquots on a solid support (e.g. Mylar® foil or microporous polymeric membrane) and left to evaporate all the solvents. […] Other sensor formulations can also be used, such formulations are known to specialists in the area.
(§3) Thin film (˜5 μm) sensor coatings produced according to Table 1 were studied for their photophysical, O2 and pH sensing properties.
The unquenched phosphorescence lifetime of 70 μs in O2-free buffer (at 24° C.) was close to that of the other Pt-porphyrins and O2 sensors on their basis. In air-saturated solution (20.9 kPa or 250 μM) the lifetime was reduced by approximately 60%. […] Full O2 calibrations of the two sensors show a pronounced non-linearity of Stern-Volmer plots (in FIG. 2B).

[2] = Absorption and emission spectra of thin film sensor coatings; conditions: solid state sensor form
Excerpt: On the other hand, protonation of the peripheral group (Schiff base) leads to the formation of a delocalised carbocation represented by 10 resonant structures. This process is accompanied by major spectral changes: a shift in absorbance peak from 398 nm to 443 nm and the disappearance of the porphyrin type of electronic spectra and phosphorescence. The process is reversible and potentially allows for sensing of the protonation or pH changes by means of absorbance or phosphorescence measurements.
as §2, §3

[3] = pH calibration (pKa) of solid state sensors by absorbance / phosphorescence intensity; conditions: for pH range covered by the sensor: air-saturated buffer; for pKa value (21% O2) 0 mM NaCl / pKa value (21% O2) 500 mM NaCl: solid state sensor form
Procedure: as §1, §2, §3
With respect to their pH sensitivity, the two sensors produced the anticipated spectral responses which occurred in the useful range of pH. […] However, the decrease in phosphorescence intensity signal occurred without any significant changes in the phosphorescence lifetime.

SMILES | cross-sensitivity of O2 response to pH ([1]; phosphorescence lifetime modality) | O2 range the dual-analyte sensor is well suited for ([1]; physiological range) [µM] | unquenched lifetime ([1]; sensor, unquenched) [µs] | quenching by dissolved O2 [1] | Lifetime 0% O2 [1] | Lifetime 21% O2 [1] | Emission [2] [nm] | Absorption ([2]; pH 2.0) | Absorption ([2]; pH 8.0) | pH range covered by the sensor ([3]; 24° C.) | pH range the dual-analyte sensor is well suited for ([3]; physiological range) | pKa value (21% O2) 0 mM NaCl ([3]; 24° C.) | pKa value (21% O2) 0 mM NaCl ([3]; 30° C.) | pKa value (21% O2) 500 mM NaCl ([3]; 24° C.) | pKa value (21% O2) 500 mM NaCl ([3]; 30° C.) | reduction of lifetime in air-saturated solution ([1]; air-saturated solution (20.9 kPa or 250 μM O2)) | unquenched phosphorescence lifetime ([1]; sensor in O2-free buffer, 24° C.) [μs] | pKa more acidic than the Pd-OEP-CH═N—CH3 sensor ([3]; difference between the two sensors) [pH unit]
CN=CC1=C2N=C(C=c3c(C)c(CCC(=O)OC)c4[n]3[Pd][n]3c(c(C)c(CCC(=O)OC)c31)C=C1N=C(C=4)C(C)=C1CCC(=O)OC)C(CCC(=O)OC)=C2C [Pd—CPE—CH═NMe] | no cross-sensitivity to pH | 0 to 200 | 147 | more favorable quenchability | 172 (24° C.) μs | 33 (24° C.) μs | 673 | 443 (pH 2.0) nm | 398 (pH 8.0) nm | 6.5-8.0 | 6-8 | 5.9 (24° C.) | 6.9 (30° C.) | 5.5 (24° C.) | 6.5 (30° C.) |  |  | 
CCC1=C(CC)c2cc3[n-]c(c(C=NC)c4nc(cc5[n-]c(cc1n2)c(CC)c5CC)C(CC)=C4CC)c(CC)c3CC.[Pt+2] [Pt—OEP—CH═NMe] |  |  |  | moderate quenching | 60 (24° C.) μs | 36 (24° C.) μs | 670 | 443 (pH 2.0) nm | 398 (pH 8.0) nm | 5-7 |  | 4.3 (24° C.) | 5.9 (30° C.) |  | 5.5 (30° C.) | approximately 60% | 70 | ~1
